Results taken from ChEMBL document CHEMBL1201862, “PubChem BioAssay data set” (2004).
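Interpolation was linear, between the two tested concentrations surrounding the appropriate level; five concentrations were tested over 48 hours in 96-well plates. Abbreviation: GI50, concentration required for 50% inhibition of growth.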 Active and inactive are the calls of the source. Rule as the data show it: active = GI50 up to about 1.1 µM and inactive = higher.

How the values were obtained:
Assay in all cases: NCI-60 cell line screen, 48 h
LXFL 529 = test system: LXFL 529
M19-MEL = test system: M19-MEL
DLD-1 = test system: DLD-1
HOP-18 = test system: HOP-18
KM-20L2 = test system: KM-20L2
RXF 631 = test system: RXF 631
SNB-78 = test system: SNB-78
DMS-273 = test system: DMS-273
XF498 = test system: XF498

| SMILES | GI50 (LXFL 529) | GI50 (M19-MEL) | GI50 (DLD-1) | GI50 (HOP-18) | GI50 (KM-20L2) | GI50 (RXF 631) | GI50 (SNB-78) | GI50 (DMS-273) | GI50 (XF498) |
| --- | --- | --- | --- | --- | --- | --- | --- | --- | --- |
| NC1=NNC(=O)c2nnc3c(C(=O)O)cnn3c2S1 | > 100 µM (inactive) | > 100 µM (inactive) | > 100 µM (inactive) | > 100 µM (inactive) | > 100 µM (inactive) |  |  |  |  |
| Cc1cccc(C)c1NC(=O)CCCC(=O)C1CCC/C1=N\NC(=O)C(=O)NN (stereo not drawn) | > 100 µM (inactive) |  | > 100 µM (inactive) | > 100 µM (inactive) | > 100 µM (inactive) | > 100 µM (inactive) | > 100 µM (inactive) | > 100 µM (inactive) | > 100 µM (inactive) |
| CCOC(=O)[C@H]1CSC[C@@H](C(=O)OC)N1 | > 100 µM (inactive) | > 100 µM (inactive) | > 100 µM (inactive) |  |  |  |  | > 100 µM (inactive) |  |
| O=C1CCSC2=C1SCc1sccc12 | > 100 µM (inactive) | > 100 µM (inactive) | > 100 µM (inactive) |  | > 100 µM (inactive) |  | > 100 µM (inactive) |  | > 100 µM (inactive) |
| O=S1(=O)c2ccccc2NC(c2ccc3ccccc3c2)CC1c1ccccc1F (stereo not drawn) |  | > 100 µM (inactive) | > 100 µM (inactive) | 22.1 µM (inactive) | > 100 µM (inactive) | > 100 µM (inactive) |  | > 100 µM (inactive) | > 100 µM (inactive) |
| Cc1cc(N(CCC#N)CCC#N)ccc1/C=C1N=C(/C=C\c2ccccc2)N(c2ccc(Cl)cc2)C\1=O |  | 1.57 µM (inactive) |  | > 100 µM (inactive) |  |  | > 100 µM (inactive) | 0.288 µM (active) | > 100 µM (inactive) |
| O=C1CCCc2c(O)ccc(O)c21 | 44 µM (inactive) | 93.5 µM (inactive) | > 100 µM (inactive) | > 100 µM (inactive) | > 100 µM (inactive) |  | > 100 µM (inactive) | > 100 µM (inactive) |  |
| NC(=S)N/N=C1/C(=O)N(c2ccccc2)C(=O)C1C(=O)Nc1ccccc1 (stereo not drawn) | > 100 µM (inactive) | > 100 µM (inactive) |  | > 100 µM (inactive) | > 100 µM (inactive) | > 100 µM (inactive) | > 100 µM (inactive) | > 100 µM (inactive) | > 100 µM (inactive) |
| N#CC1C[C@@H]2CC3(CCC2CN1C(=O)c1ccccc1)OCCO3 (stereo partly drawn) | > 100 µM (inactive) | > 100 µM (inactive) | > 100 µM (inactive) | > 100 µM (inactive) | > 100 µM (inactive) |  | > 100 µM (inactive) | > 100 µM (inactive) | > 100 µM (inactive) |
| O=C1NC(O)n2c(=O)[nH]c(=O)n21 (stereo not drawn) | > 100 µM (inactive) | > 100 µM (inactive) | > 100 µM (inactive) | > 100 µM (inactive) | > 100 µM (inactive) | > 100 µM (inactive) | > 100 µM (inactive) | > 100 µM (inactive) | > 100 µM (inactive) |
| COc1ccccc1C1c2cc3c(cc2OC(O)(CO)C1C(=O)O)OCO3.COc1ccccc1C1c2cc3c(cc2OC2(O)COC(=O)C12)OCO3 (stereo not drawn) | > 100 µM (inactive) | > 100 µM (inactive) | > 100 µM (inactive) | > 100 µM (inactive) | > 100 µM (inactive) |  | > 100 µM (inactive) | > 100 µM (inactive) |  |
| C=CN1C(=O)OC[C@@H]1c1ccccc1 | > 100 µM (inactive) | > 100 µM (inactive) | > 100 µM (inactive) | > 100 µM (inactive) | > 100 µM (inactive) | > 100 µM (inactive) | > 100 µM (inactive) | 20 µM (inactive) | 83 µM (inactive) |
| CN1CC(=O)N2Cc3ccccc3-n3cccc3C2C1 (stereo not drawn) | > 100 µM (inactive) | > 100 µM (inactive) | > 100 µM (inactive) | 4.92 µM (inactive) | > 100 µM (inactive) | > 100 µM (inactive) | > 100 µM (inactive) | > 100 µM (inactive) | > 100 µM (inactive) |
| CC(=O)OCC(OC(C)=O)C(OC(C)=O)C(OC(C)=O)C(=O)CNn1c(-c2ccccc2)nc2ccc(Br)cc2c1=O (stereo not drawn) | > 100 µM (inactive) | > 100 µM (inactive) |  |  | > 100 µM (inactive) |  | > 100 µM (inactive) | > 100 µM (inactive) | 21.2 µM (inactive) |
